Assay results from US20090149461A1, “METHOD OF TREATING CANCER” (ABBOTT LABORATORIES, priority 2007, published 2009).
Where two headings read alike, the source gives them in different places.

How the values were obtained:
[1] = in vivo rat micronucleus assay
[2] = (14C) ABT-263 absorption and elimination in rat; assay type: in vivo
Description: (§1) The oral bioavailability of the compound is formulation dependent, with values of 30% to 50% obtained from prototype solid dispersion and lipid-based formulations in dog. […] Elimination of total radioactivity is rapid, with 90% of the dose recovered within 24-hours post-dose.

[3] = nonclinical pharmacokinetic profile in multiple animal models; assay type: in vivo; details: all species studied
[4] = Phase 1/2a study pharmacokinetics; assay type: in vivo, human; details: for AUC: human
Procedure: There was no drug administered for the 72 hours following the first dose of the first cycle (Day-3) in order to assess the single-dose pharmacokinetics and toxicity.
Additional blood samples were collected at 0 hour (pre dose) on Day 14, Cycle 2 through Cycle 6. Sufficient blood were collected to provide approximately 1 mL plasma from each sample. A total of 27 blood samples (approximately 81 mL) were collected per subject for pharmacokinetic analysis during Cycle 1 and one additional blood sample per subject per cycle in the following cycles (up to Cycle 6).
The plasma samples were transferred using plastic pipettes into screw-capped polypropylene tubes labeled with the drug number name, type of sample (plasma), the protocol number, the subject number, the study cycle and day and the planned time of sampling relative to dosing. The plasma samples were frozen at −20° C. or colder within 1 hour after collection and will remain frozen until shipped.
Additional parameters may be calculated if useful in the interpretation of the data.
Subjects self-administered ABT-263 orally once daily (QD). Each dose were taken with approximately 240 mL of water. On days that pre-dose pharmacokinetic sampling is required (Cycle 1 Day-3, Cycle 1 Day 1, Cycle 1 Day 2, Cycle 1 Day 14, Cycle 2 Day 14, Cycle 3 Day 14, Cycle 4 Day 14, Cycle 5 Day 14 and Cycle 6 Day 14 in Phase 1 and on Cycle 1 Day 14 in Phase 2a) dosing will occur in the morning in the clinic to facilitate pharmacokinetic sampling.

[5] = tested on: Salmonella-Escherichia coli; assay: Salmonella-Escherichia coli bacterial mutation assay (Ames); details: with or without metabolic activation
[6] = dog toxicity studies; assay type: in vivo
Description: Target organs in the dog included lymphoid tissues (spleen, Peyer's patch, lymph nodes, and thymus (a 2-week study)), male reproductive tissues (testes and epididymides), and pancreas. The microscopic changes observed in these target organs included decreased size of follicles, cortex, and/or germinal centers in lymphoid tissue; decreased cellularity in mantle zone, germinal centers, and/or interfollicular areas of lymphoid tissue; spermatogonia, spermatocyte and/or spermatid (round and elongated) depletion; and pancreatic acinar cell single cell necrosis. With the exception of pancreatic acinar cell single cell necrosis, these microscopic changes were also noted following a 4-week dose-free recovery period.

[7] = rat toxicity studies
[8] = tested on: DoHH-2; assay: flank model of diffuse large B-cell lymphoma, monotherapy; assay type: in vivo; details: DoHH-2 flank model; 100 mg/kg/day p.o., q.d.×17 days
Description: (§2) Both of these tumors are known to express high levels of Bcl-2 due to the t(14;18) translocation. The WSU-DLCL2 line was isolated from a patient whose disease progressed following chemotherapy, radiation therapy and bone marrow transplantation and is recognized as a model of therapy-resistant lymphoma.

[9] = tested on: WSU-DLCL2; assay: as above; assay type: in vivo; details: 100 mg/kg/day p.o., q.d.×17 days
Description: as §2

[10] = tested on: human tumor cell lines derived from small cell lung carcinomas and lymphoid malignancies; assay: mechanism-based cytotoxicity in tumor cell lines
[11] = molecular target: T1, Bcl-B (Homo sapiens, UniProt Q9HD36); assay: binding affinity to anti-apoptotic Bcl-2 family proteins
T1 sequence (Q9HD36 1-204): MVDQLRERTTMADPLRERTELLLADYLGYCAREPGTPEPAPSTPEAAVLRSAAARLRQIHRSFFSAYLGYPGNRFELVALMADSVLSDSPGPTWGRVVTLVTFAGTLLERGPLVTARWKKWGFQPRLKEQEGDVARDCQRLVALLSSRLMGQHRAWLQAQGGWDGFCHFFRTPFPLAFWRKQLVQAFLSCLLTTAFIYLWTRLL

[12] = rat, in vivo, 4 weeks
[13] = simulation of q.d. dosing in humans (exposure and platelets)
Description: Based on preclinical evidence, potential treatment-related side effects may include drug interactions, lymphopenia, testicular effects, and thrombocytopenia. […] Under these conditions, platelet values are expected to be ′25 K/.iL at steady state.

[14] = tested on: platelets; assay: decrease in circulating platelets in animals; assay type: in vivo, mouse, rat and dog
Description: Thrombocytopenia was seen after administration of a single dose and is present at the time of Cmax.

[15] = tested on: 22 cell lines consisting of multiple leukemia and lymphoma types (B-cell and T-cell malignancies); assay: single agent activity in leukemia and lymphoma cell line panel; assay type: cell-based
[16] = oral bioavailability from prototype formulations in dog; assay type: in vivo; details: beagle, plasma, prototype solid dispersion and lipid-based formulations
Description: as §1

[17] = molecular target: T2, Bcl-w (Homo sapiens, UniProt Q92843); assay: binding affinity to anti-apoptotic Bcl-2 family proteins
T2 sequence (Q92843 1-193): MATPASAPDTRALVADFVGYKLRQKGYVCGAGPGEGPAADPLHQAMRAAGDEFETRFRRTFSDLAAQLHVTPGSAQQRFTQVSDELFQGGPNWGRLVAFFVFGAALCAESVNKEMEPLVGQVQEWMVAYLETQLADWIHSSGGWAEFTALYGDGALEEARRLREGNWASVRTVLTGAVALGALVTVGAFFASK

[18] = tested on: cultured human peripheral blood lymphocytes; assay: chromosomal aberration assay; assay type: cell-based; details: with or without metabolic activation

SMILES: CC1(C)CCC(c2ccc(Cl)cc2)=C(CN2CCN(c3ccc(C(=O)NS(=O)(=O)c4ccc(N[C@H](CCN5CCOCC5)CSc5ccccc5)c(S(=O)(=O)C(F)(F)F)c4)cc3)CC2)C1 [ABT-263, N-(4-(4-((2-(4-chlorophenyl)-5,5-dimethyl-1-cyclohex-1-en-1-yl)methyl)piperazin-1-yl)benzoyl)-4-(((1R)-3-(morpholin-4-yl)-1-((phenylsulfanyl)methyl)propyl)amino)-3-((trifluoromethyl)sulfonyl)benzenesulfonamide]
- clastogenicity in rat micronucleus assay [1]: not clastogenic
- absorption ([2]; (14C) ABT-263): slowly absorbed
- parent drug in systemic circulation ([2]; (14C) ABT-263): major component
- dose recovered (total radioactivity) ([2]; within 24-hours post-dose): 90%
- half-life ([3]; CD-1 (mouse), Sprague-Dawley (rat), beagle (dog), mouse, rat, dog, cynomolgus monkey, plasma, read-out: terminal half-lives): 4.6 to 8.4 h
- plasma clearance [3]: very low
- volumes of distribution [3]: low
- effect of food on oral absorption ([4]; fasting vs non-fasting): mild positive effect
- Inter-subject variability in exposure ([4]; human subjects): ~40%
- dose proportionality of exposure ([4]; human subjects): dose-proportional
- AUC ([4]; in vivo, preclinical target, read-out: Preclinical target AUC): 53000 to 88000 ng·h/mL
- AUC ([4]; plasma, oral, 225 mg (n=4), read-out: Mean AUC): 47000 ng·h/mL
- AUC ([4]; plasma, oral, 315 mg (n=5), read-out: Mean AUC): 100000 ng·h/mL
- AUC ([4]; plasma, oral, 440 mg (n=3), read-out: Mean AUC): 109000 ng·h/mL
- half-life ([4]; plasma, oral, human subjects): 14 to 20 h
- mutagenicity in the Ames assay [5]: not mutagenic
- bleeding time ([6]; 2-week toxicity study, dogs with low platelet counts (<50 K/μL)): prolonged bleeding time
- time to full reversal of platelet effect after treatment ended ([6]; 4-week toxicity study in dogs): less than 7 days
- effect on lymphocytes ([6]; dog): mild decrease
- effect on platelets ([6]; dog): marked decrease
- NOAEL at 4 weeks ([6]; dog, in vivo, 4 weeks of administration to dogs): 1 mg/kg/day
- no-observed-adverse-effect-level (NOAEL) ([7]; 4-week rat toxicity study): not reached
- effect on liver enzymes (ALT, AST, alkaline phosphatase) ([7]; rat): minimal to mild increases
- effect on lymphocytes ([7]; rat): minimal to moderate decreases
- effect on platelets ([7]; rat): mild to marked decreases
- monotherapy activity [8]: significant monotherapy activity
- monotherapy activity [9]: significant monotherapy activity
- EC50 [10]: ≤ 1000 nM
- Ki [11]: ≤ 1 nM
- tolerated dose [12]: 10 mg/kg/day
- expected biologically effective plasma concentration in humans [13]: 6.7 .iM
- time for platelet counts to return to normal values ([14]; after a single dose): approximately one week
- duration for which platelet toxicity was tolerated ([14]; rat and dog): up to 28 days
- cell lines with potent single agent activity [15]: 10 of 22
- bioavailability [16]: 30 to 50%
- Ki [17]: ≤ 1 nM
- chromosome aberrations in human lymphocytes in vitro [18]: did not induce chromosome aberrations
